≈ marks a conversion by molar mass, not a printed value. Read-outs that look alike come from different tables or passages of the source. Each block holds one compound with its values, some of them ahead of it.
Key:
Type in all cases: cell-based
[1] = tested on: Aureobasidium pullulans; test: Synergy testing of 2 way mixtures, liquid culture on 24 well plates (Colby); conditions: A. pullulans; for inhibition at 50 µg/mL: CDL 50 mg ai/l; for inhibition at 100 µg/mL: CDL 100 mg ai/l
Experimental: (§1) For synergism testing of the 2 way mixtures 100 ul of each fungicide were filled into the 24 well plates (8 different rates) and 800 ul of 0.3% PDA media containing the spore suspension was added (see above). Different ratios of the 2 fungicide rates were tested at the same time.
(§2) Stachybotrys chartarum and Aureobasidium pullulans were separately cultivated on PDA media to […] sporulation. Spore suspensions were produced for each fungi.
(§3) For the mixtures of different fungicides the synergism was calculated based on the Colby equation, which is described below: […]
(§4) The fungicidal action to be expected, We, for a given combination of two fungicides can be calculated as follows (see COLBY, S. R. “Calculating synergistic and antagonistic response of herbicide combinations”. Weeds 15, pages 20-22; 1967):
(§5) wherein: X=% activity in the case of treatment with the compound of formula I at rate x, in comparison with untreated control (=0%). Y=% activity in the case of treatment with a compound of formula II at rate y, in comparison with untreated control. We=expected activity (% activity in comparison with untreated control) after treatment with the compound of formula I and a compound of formula II at a rate of x+y kg of active ingredient.
(§6) If the activity actually observed is greater than the expected value We, there is a synergistic effect.
(§7) All rates below are expressed as mg ai/l (i.e. ppm).

[2] = tested on: Aureobasidium pullulans; test: MIC value generation: liquid culture assay on 24 well plates, solo ai; conditions: A. pullulans; for EC95: concentration for 95% activity estimated from graph; for MIC: Aureobasidium pullulans, rates 0-100 mg ai/l, mean values of n = 5, read-out: MIC Minimal inhibition concentration
Experimental: (§8) Stachybotrys chartarum, and Aureobasidium pullulans were separately cultivated on PDA media to […] sporulation. Spore suspensions were produced for each fungi.
(§9) Test method used: liquid culture assay on 24 well plates.
(§10) For solo (i.e. single) ai testing the formulated fungicide (100 ul) was filled into the 24 well plates (8 different rates: 100-0.05 mg ai/l final volume as described above) and 100 ul distilled water was added. Afterwards 800 ul of 0.3% PDA media was added to the plate. The spore suspension of the specific fungi was added to this media in advance containing approx. 100.000 spores/ml. The 24 well plates were sealed and incubated at 24° C.
(§11) Dependent on the growth prosperities of each organisms, the evaluation was done after 3 to 6 days, when the surface of the check well was covered with mycelium. The evaluation was performed by assessing the growth of the fungi related to the check growth. The results are expressed as % activity relative to the check (values of 0-100% growth). Afterwards the results were converted in % growth inhibition. EC95 values and also MIC (minimal inhibition concentration) values were derived for each compound.
(§12) For each solo compound a graph was drawn of percentage inhibition against the concentration of the fungicide. From this graph the concentration of the fungicide required to achieve 95% activity was estimated. Also the concentration that gave the minimum inhibition concentration was derived as MIC value.

[3] = tested on: Stachybotrys chartarum; test: as above; conditions: S. chartarum; for EC95: concentration for 95% activity estimated from graph; for MIC: Stachybotrys chartarum, rates 0-100 mg ai/l, mean values of n = 5, read-out: MIC Minimal inhibition concentration
Experimental: as §8, §9, §10, §11, §12

[4] = tested on: Stachybotrys chartarum; test: Synergy testing of 2 way mixtures, liquid culture on 24 well plates (Colby); conditions: S. chartarum
Experimental: as §1, §2, §3, §4, §5, §6, §7

[5] = PPZ 3.1 mg ai/l, read-out: inh % (PPZ alone)
[6] = CDL 12.5 mg ai/l, PPZ table, read-out: inh % (CDL alone)
[7] = CCZ table, read-out: inh % (CDL alone)
[8] = DFZ table, read-out: inh % (CDL alone)
[9] = PPZ table, read-out: inh % (CDL alone)
[10] = TBZ table, read-out: inh % (CDL alone)

MIC [2]: 50 µg/mL (≈ 248 µM)
MIC [3]: 50 µg/mL (≈ 248 µM)
SMILES: c1ccc2[nH]c(-c3cscn3)nc2c1 [TBZ, Thiabendazole]
inhibition at 12.5 µg/mL ([1]; TBZ 12.5 mg ai/l, read-out: inh % (TBZ alone)): 90%
EC95 [2]: 15 mg ai/l
EC95 [3]: 46 mg ai/l

SMILES: CC1COC(Cn2cncn2)(c2ccc(Oc3ccc(Cl)cc3)cc2Cl)O1 (stereo not drawn) [DFZ, Difenoconazole]
inhibition at 0.8 µg/mL ([1]; DFZ 0.8 mg ai/l, read-out: inh % (DFZ alone)): 90%
inhibition at 1.6 µg/mL ([1]; DFZ 1.6 mg ai/l, read-out: inh % (DFZ alone)): 90%
inhibition at 3.1 µg/mL ([1]; DFZ 3.1 mg ai/l, read-out: inh % (DFZ alone)): 70%
EC95 [2]: 8 mg ai/l
MIC [2]: 12.5 µg/mL (≈ 30.8 µM)
EC95 [3]: 2.7 mg ai/l
MIC [3]: 3.1 µg/mL (≈ 7.63 µM)

SMILES: CC(C1CC1)C(O)(Cn1cncn1)c1ccc(Cl)cc1 (stereo not drawn) [CCZ, Cyproconazole]
inhibition at 1.6 µg/mL ([1]; CCZ 1.6 mg ai/l, read-out: inh % (CCZ alone)): 70%
inhibition at 3.1 µg/mL ([1]; CCZ 3.1 mg ai/l, read-out: inh % (CCZ alone)): 90%
inhibition at 100 µg/mL ([4]; CCZ 100 mg ai/l, read-out: inh % (CCZ alone)): 50%
EC95 [2]: 6.5 mg ai/l
MIC [2]: 12.5 µg/mL (≈ 42.8 µM)
EC95 [3]: >100 mg ai/l
MIC [3]: > 100 µg/mL

SMILES: CCCC1COC(Cn2cncn2)(c2ccc(Cl)cc2Cl)O1 (stereo not drawn) [PPZ, Propiconazole]
inhibition at 3.1 µg/mL [1, 5]: 70%
inhibition at 12.5 µg/mL ([1]; PPZ 12.5 mg ai/l, read-out: inh % (PPZ alone)): 70%
inhibition at 0.2 µg/mL ([4]; PPZ 0.2 mg ai/l, read-out: inh % (PPZ alone)): 0%
inhibition at 1.6 µg/mL ([4]; PPZ 1.6 mg ai/l, read-out: inh % (PPZ alone)): 0%
inhibition at 3.1 µg/mL [4, 5]: 10%
EC95 [2]: 36 mg ai/l
MIC [2]: 50 µg/mL (≈ 146 µM)
EC95 [3]: >100 mg ai/l
MIC [3]: > 100 µg/mL

SMILES: Cc1cc(C2CC2)nc(Nc2ccccc2)n1 [CDL, Cyprodinil]
inhibition at 0.8 µg/mL ([1]; CDL 0.8 mg ai/l, DFZ table, read-out: inh % (CDL alone)): 0%
inhibition at 1.6 µg/mL ([1]; CDL 1.6 mg ai/l, CCZ table, read-out: inh % (CDL alone)): 10%
inhibition at 1.6 µg/mL ([1]; CDL 1.6 mg ai/l, DFZ table, read-out: inh % (CDL alone)): 10%
inhibition at 1.6 µg/mL ([1]; CDL 1.6 mg ai/l, PPZ table, read-out: inh % (CDL alone)): 10%
inhibition at 1.6 µg/mL ([1]; CDL 1.6 mg ai/l, TBZ table, read-out: inh % (CDL alone)): 10%
inhibition at 3.1 µg/mL ([1]; CDL 3.1 mg ai/l, DFZ table, read-out: inh % (CDL alone)): 10%
inhibition at 3.1 µg/mL ([1]; CDL 3.1 mg ai/l, PPZ table, read-out: inh % (CDL alone)): 10%
inhibition at 3.1 µg/mL ([1]; CDL 3.1 mg ai/l, TBZ table, read-out: inh % (CDL alone)): 10%
inhibition at 12.5 µg/mL ([1]; CDL 12.5 mg ai/l, CCZ table, read-out: inh % (CDL alone)): 30%
inhibition at 12.5 µg/mL ([1]; CDL 12.5 mg ai/l, DFZ table, read-out: inh % (CDL alone)): 30%
inhibition at 12.5 µg/mL [1, 6]: 30%
inhibition at 12.5 µg/mL ([1]; CDL 12.5 mg ai/l, TBZ table, read-out: inh % (CDL alone)): 30%
inhibition at 50 µg/mL [1, 7]: 30%
inhibition at 50 µg/mL [1, 8]: 30%
inhibition at 50 µg/mL [1, 9]: 30%
inhibition at 50 µg/mL [1, 10]: 50%
inhibition at 100 µg/mL [1, 7]: 30%
inhibition at 100 µg/mL [1, 8]: 30%
inhibition at 100 µg/mL [1, 9]: 30%
inhibition at 100 µg/mL [1, 10]: 50%
inhibition at 3.1 µg/mL ([4]; CDL 3.1 mg ai/l, CCZ table, read-out: inh % (CDL alone)): 0%
inhibition at 12.5 µg/mL [4, 6]: 70%
EC95 [2]: >100 mg ai/l
MIC [2]: > 100 µg/mL
EC95 [3]: 46 mg ai/l
MIC [3]: 50 µg/mL (≈ 222 µM)

— US20090221619A1, “NOVEL MATERIALS AND METHODS FOR THE PRODUCTION THEREOF” (SYNGENTA CROP PROTECTION, INC., priority 2005, published 2009)
